Reference: patent publication US11116771B2, “G protein-coupled receptor (GPCR) modulation by imipridones” (Oncoceutics, Inc., priority 2016, dated 2021)
≈ marks a conversion by molar mass, not a printed value. Entries after “also recorded” stand apart in the source; their conditions may differ. Where two headings read alike, the source gives them in different places.

Key:
MV411 AML cells = test: Cell viability, MV411 AML cells; format: cell-based
HL60 = test: Cell viability, HL60 AML cell line; format: cell-based; details: Homo sapiens, HL-60, 72 h
MOLM14 AML cells = test: Cell viability, MOLM14 AML cells; format: cell-based; details: ONC212 at 250 nM, viability determined at 96 h (FIG. 29C)
HCT116 cells = test: Anticancer efficacy in HCT116 cells; format: cell-based, human
[1] = system: MRC5 lung fibroblasts and Hs27a bone marrow cells; test: Cell viability of normal cells treated with ONC212; format: cell-based; details: 5 nM-5 μM, 72 h (FIG. 29B)
leukemia cell lines = test: Anti-cancer efficacy in leukemia cell lines; format: cell-based; details: 55 leukemia cell lines regardless of subtype (FIG. 26)
[2] = system: NCI60 cancer cell line panel; test: NCI60 cancer cell line panel; format: cell-based; details: NCI60 panel (FIG. 16)
[3] = system: human colon cancer xenograft; test: Human colon cancer xenograft in mice; format: in vivo; details: single dose, oral or intraperitoneal (FIG. 24)
MV411 AML xenograft = MV411 AML xenograft model; format: in vivo, athymic nude mice
[4] = Rat non-GLP oral single dose study; format: in vivo; details: in vivo
[5] = Mouse tolerability (non-GLP oral single dose / MTD study); format: in vivo
Description: ONC212 25 mg/kg represents NOAEL in mouse and rat non-GLP oral single dose studies which is also the efficacious dose in mouse xenograft studies. […].
Dual targeting of DRD2/3 and GPR132/91 represents a novel strategy for anti-cancer efficacy without toxicity. […] […]. […] […].

[6] = system: DRD2 (short and long isoforms); test: β-arrestin recruitment GPCR reporter assay, DRD2; format: cell-based
GPR132 = target: T1, GPR132 (Homo sapiens, UniProt Q9UNW8); test: β-arrestin recruitment GPCR reporter assay, GPR132; format: cell-based
T1 sequence (Q9UNW8 1-380): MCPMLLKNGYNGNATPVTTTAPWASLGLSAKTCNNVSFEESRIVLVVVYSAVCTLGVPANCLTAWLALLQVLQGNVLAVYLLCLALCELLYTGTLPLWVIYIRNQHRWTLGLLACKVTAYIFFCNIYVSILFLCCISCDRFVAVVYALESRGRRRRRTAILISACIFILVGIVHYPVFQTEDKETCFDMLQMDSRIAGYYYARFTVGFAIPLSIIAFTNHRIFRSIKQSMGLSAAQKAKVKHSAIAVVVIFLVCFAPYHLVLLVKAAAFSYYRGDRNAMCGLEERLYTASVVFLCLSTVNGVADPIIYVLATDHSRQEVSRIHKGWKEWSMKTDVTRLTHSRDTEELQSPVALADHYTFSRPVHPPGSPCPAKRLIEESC

[7] = system: Staphylococcus aureus ATCC 29213; test: MIC by micro-broth dilution, S. aureus ATCC 29213; format: cell-based
[8] = system: Staphylococcus aureus ATCC 33591; test: MIC by micro-broth dilution, S. aureus ATCC 33591; format: cell-based
[9] = system: Staphylococcus aureus ATCC 700699; test: MIC by micro-broth dilution, S. aureus ATCC 700699; format: cell-based; details: Staphylococcus aureus
[10] = system: human fetal lung fibroblast (MRC-5) cells; details: MRC5; nanomolar concentrations (FIG. 22)
DRD2L = DRD2L (Homo sapiens, UniProt P14416); test: Gaddum/Schild analysis of arrestin recruitment to DRD2L; format: cell-based; details: arrestin recruitment / cAMP reporters (FIGS. 5B, 5C, 5F)
Chain of DRD2L (P14416 whole entry): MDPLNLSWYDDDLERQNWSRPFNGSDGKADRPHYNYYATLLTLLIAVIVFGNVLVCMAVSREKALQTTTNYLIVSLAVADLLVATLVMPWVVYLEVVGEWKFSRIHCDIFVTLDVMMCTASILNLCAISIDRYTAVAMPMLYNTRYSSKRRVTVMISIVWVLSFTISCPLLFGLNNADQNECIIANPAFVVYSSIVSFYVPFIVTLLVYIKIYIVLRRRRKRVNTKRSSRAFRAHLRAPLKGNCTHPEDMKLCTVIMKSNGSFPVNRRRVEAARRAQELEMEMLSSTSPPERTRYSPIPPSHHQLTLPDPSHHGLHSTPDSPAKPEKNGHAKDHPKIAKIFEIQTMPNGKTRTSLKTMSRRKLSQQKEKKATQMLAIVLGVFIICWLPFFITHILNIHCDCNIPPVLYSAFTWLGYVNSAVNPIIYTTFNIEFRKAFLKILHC

DRD5 = DRD5 (Homo sapiens, UniProt P21918); test: β-arrestin recruitment GPCR reporter assay, DRD5; format: cell-based
Chain of DRD5 (P21918 whole entry): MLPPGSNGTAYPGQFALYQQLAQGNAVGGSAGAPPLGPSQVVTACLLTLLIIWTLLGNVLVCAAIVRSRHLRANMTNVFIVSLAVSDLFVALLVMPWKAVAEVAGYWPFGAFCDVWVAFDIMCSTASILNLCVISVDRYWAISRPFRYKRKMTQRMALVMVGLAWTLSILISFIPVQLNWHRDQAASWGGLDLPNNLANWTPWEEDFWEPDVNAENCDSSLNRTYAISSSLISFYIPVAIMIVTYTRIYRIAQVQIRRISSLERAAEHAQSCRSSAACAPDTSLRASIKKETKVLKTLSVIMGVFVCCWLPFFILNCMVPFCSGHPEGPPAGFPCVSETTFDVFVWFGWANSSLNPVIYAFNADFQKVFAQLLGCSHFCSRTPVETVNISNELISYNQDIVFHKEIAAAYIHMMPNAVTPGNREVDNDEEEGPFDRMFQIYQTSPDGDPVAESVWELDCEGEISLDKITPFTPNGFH

HCT116, MDA-MB-231, U87 [11] = details: about 1-5 mg/mL of ONC201, 72 hours
prolactin = details: advanced solid tumors, ELISA in peripheral blood after ONC201
DRD1 = DRD1 (Homo sapiens, UniProt P21728); details: arrestin recruitment reporter assay
Chain of DRD1 (P21728 whole entry): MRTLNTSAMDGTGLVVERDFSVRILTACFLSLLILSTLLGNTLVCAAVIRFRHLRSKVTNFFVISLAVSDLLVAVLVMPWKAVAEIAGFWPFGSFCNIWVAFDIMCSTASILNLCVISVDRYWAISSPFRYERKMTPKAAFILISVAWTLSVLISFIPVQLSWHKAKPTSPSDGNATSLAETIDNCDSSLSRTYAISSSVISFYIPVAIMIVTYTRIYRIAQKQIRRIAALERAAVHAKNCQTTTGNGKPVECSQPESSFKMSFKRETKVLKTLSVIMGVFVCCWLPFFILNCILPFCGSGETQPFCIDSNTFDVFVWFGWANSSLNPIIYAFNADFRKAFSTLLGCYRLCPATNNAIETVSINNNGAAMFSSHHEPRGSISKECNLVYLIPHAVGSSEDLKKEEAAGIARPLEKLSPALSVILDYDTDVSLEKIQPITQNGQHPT

DRD4 = DRD4 (Homo sapiens, UniProt P21917); details: arrestin recruitment reporter assay
Chain of DRD4 (P21917 whole entry): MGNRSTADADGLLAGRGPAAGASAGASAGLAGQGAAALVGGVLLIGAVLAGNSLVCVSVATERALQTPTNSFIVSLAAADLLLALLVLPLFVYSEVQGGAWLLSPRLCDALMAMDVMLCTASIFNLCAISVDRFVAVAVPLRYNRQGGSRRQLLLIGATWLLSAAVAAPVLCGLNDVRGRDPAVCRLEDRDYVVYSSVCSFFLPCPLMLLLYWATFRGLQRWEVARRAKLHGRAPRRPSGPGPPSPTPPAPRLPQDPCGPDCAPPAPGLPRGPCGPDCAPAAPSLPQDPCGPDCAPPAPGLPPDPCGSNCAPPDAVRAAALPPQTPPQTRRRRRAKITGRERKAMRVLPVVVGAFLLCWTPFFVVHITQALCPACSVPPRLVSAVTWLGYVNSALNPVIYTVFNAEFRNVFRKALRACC

kinome = details: in vitro kinase enzymatic activity, ONC201 1 μM (FIG. 5E)
[12] = system: nuclear hormone receptors; details: ONC201 2 or 20 μM (FIG. 5D)
human DRD2 [13] = target: T2, human DRD2 (Homo sapiens, UniProt P14416)
T2 sequence (P14416 whole entry): as the sequence (P14416 whole entry) above

control GPCR = details: 100 μM ONC201
[14] = target: DRD2 alanine-scan mutation library (Homo sapiens, UniProt P14416, A177S)
Chain of DRD2 alanine-scan mutation library (Homo sapiens, UniProt P14416, A177S) (P14416 whole entry A177S): as the sequence (P14416 whole entry) above, with A177S counted along it

[15] = target: DRD2 alanine-scan mutation library (Homo sapiens, UniProt P14416, E95A)
Chain of DRD2 alanine-scan mutation library (Homo sapiens, UniProt P14416, E95A) (P14416 whole entry E95A): as the sequence (P14416 whole entry) above, with E95A counted along it

[16] = target: DRD2 alanine-scan mutation library (Homo sapiens, UniProt P14416, I397A)
Chain of DRD2 alanine-scan mutation library (Homo sapiens, UniProt P14416, I397A) (P14416 whole entry I397A): as the sequence (P14416 whole entry) above, with I397A counted along it

[17] = target: DRD2 alanine-scan mutation library (Homo sapiens, UniProt P14416, L81A)
Chain of DRD2 alanine-scan mutation library (Homo sapiens, UniProt P14416, L81A) (P14416 whole entry L81A): as the sequence (P14416 whole entry) above, with L81A counted along it

[18] = target: DRD2 alanine-scan mutation library (Homo sapiens, UniProt P14416, T165A)
Chain of DRD2 alanine-scan mutation library (Homo sapiens, UniProt P14416, T165A) (P14416 whole entry T165A): as the sequence (P14416 whole entry) above, with T165A counted along it

[19] = target: DRD2 alanine-scan mutation library (Homo sapiens, UniProt P14416, V196A)
Chain of DRD2 alanine-scan mutation library (Homo sapiens, UniProt P14416, V196A) (P14416 whole entry V196A): as the sequence (P14416 whole entry) above, with V196A counted along it

[20] = target: DRD2 alanine-scan mutation library (Homo sapiens, UniProt P14416, V91A)
Chain of DRD2 alanine-scan mutation library (Homo sapiens, UniProt P14416, V91A) (P14416 whole entry V91A): as the sequence (P14416 whole entry) above, with V91A counted along it

[21] = target: DRD2 alanine-scan mutation library (Homo sapiens, UniProt P14416, Y192A)
Chain of DRD2 alanine-scan mutation library (Homo sapiens, UniProt P14416, Y192A) (P14416 whole entry Y192A): as the sequence (P14416 whole entry) above, with Y192A counted along it

HCT116, MDA-MB-231, U87 [22] = test: cells; details: Homo sapiens, 72 h, read-out: viability of tumor cells
in vitro = details: human, Cell viability of normal cells, about 1-5 mg/mL of ONC201, 72 hours
human DRD2 [23] = target: T2, human DRD2; test: cell-based; details: HEK-293T, read-out: inhibition of the DRD2 dopamine response
[24] = oral weekly administration, ONC212 50 mg/kg, ONC201 at similar doses (FIG. 30A)

O=C1C2=C(CCN(Cc3ccccc3)C2)N2CCN=C2N1Cc1ccc(C(F)(F)F)cc1 [ONC212]
fold more potent compared to ONC201 (MV411 AML cells; AML cell lines in vitro (Table 11)): up to 400 fold | efficacy in AML cells resistant to standard of care cytarabine (MV411 AML cells; MV411, 5 nM-5 μM, 24 h (FIG. 29A)): efficacious | cell viability after 8 hr exposure (MV411 AML cells; MV411, ONC212 at 250 nM, viability determined at 96 h (FIG. 29C)): robust reduction in cell viability | IC50 (HL60): 210 nM | cell viability after 8 hr exposure (MOLM14 AML cells): robust reduction in cell viability | cell death in cancer cells (HCT116 cells; HCT116, nanomolar concentrations (FIG. 22)): induced cell death | IC50 (HCT116 cells; Homo sapiens, HCT-116, HCT116 cells): 10 nM | toxicity to normal cells [1]: non-toxic to normal cells at efficacious concentrations | anti-cancer efficacy (leukemia cell lines): nanomolar range | anti-cancer efficacy across tumor types [2]: demonstrated anti-cancer efficacy | tumor volume compared to vehicle-treated control [3]: significant reduction of tumor volume | body weight loss or gross observations (MV411 AML xenograft; all ONC212 regimens (FIG. 30C)): None of these ONC212 administration regimens were associated with body weight loss | leukemia xenograft tumor growth (MV411 AML xenograft; biweekly dosing with 25 mg/kg, oral (FIG. 30B)): not efficacious | leukemia xenograft tumor growth (MV411 AML xenograft; [24]): significantly reduced | leukemia xenograft tumor growth (MV411 AML xenograft; weekly/biweekly dosing with 5 mg/kg, oral (FIG. 30B)): not efficacious | NOAEL ([4]; rat, po): 25 mg/kg | NOAEL ([5]; in vivo, mouse, non-GLP oral single dose study / MTD study): 25 mg/kg | well tolerated dose ([5]; mice): ≥ 225 mg/kg | GPCR activity, DRD2 [6]: does not engage DRD2 | GPCR activity, GPR132 (GPR132): highly selective agonist | MIC ([7]; ATCC29213, wild type Staphylococcus aureus (ATCC 29213), read-out: MIC): 3.13 µg/mL (≈ 7.11 µM) | MIC90 ([7]; Staphylococcus aureus, ATCC29213, ATCC 29213, 24 hours, read-out: MIC90): 3.13 µg/mL (≈ 7.11 µM) | MIC ([7]; Staphylococcus aureus, ATCC29213, ATCC 29213, 24 hours, read-out: MIC95): 3.13 µg/mL (≈ 7.11 µM) | MIC99 ([7]; Staphylococcus aureus, ATCC29213, ATCC 29213, 24 hours, read-out: MIC99): 3.13 µg/mL (≈ 7.11 µM) | MIC ([7]; Staphylococcus aureus, ATCC29213, ATCC 29213, 24 hours, read-out: MIC, Visual): 3.12 µg/mL (≈ 7.09 µM) | MIC ([8]; ATCC33591, Staphylococcus aureus (ATCC 33591), methicillin resistant, read-out: MIC): 3.13 µg/mL (≈ 7.11 µM) | MIC90 ([8]; Staphylococcus aureus, ATCC33591, ATCC 33591, 24 hours, read-out: MIC90): 3.13 µg/mL (≈ 7.11 µM) | MIC ([8]; Staphylococcus aureus, ATCC33591, ATCC 33591, 24 hours, read-out: MIC95): 6.25 µg/mL (≈ 14.2 µM) | MIC99 ([8]; Staphylococcus aureus, ATCC33591, ATCC 33591, 24 hours, read-out: MIC99): 100 µg/mL (≈ 227 µM) | MIC ([8]; Staphylococcus aureus, ATCC33591, ATCC 33591, 24 hours, read-out: MIC, Visual): 3.12 µg/mL (≈ 7.09 µM) | MIC90 ([9]; ATCC700699, ATCC 700699 (48 hours), read-out: MIC90): 6.25 µg/mL (≈ 14.2 µM) | MIC ([9]; ATCC700699, ATCC 700699 (48 hours), read-out: MIC95): 12.5 µg/mL (≈ 28.4 µM) | MIC99 ([9]; ATCC700699, ATCC 700699 (48 hours), read-out: MIC99): 12.5 µg/mL (≈ 28.4 µM) | MIC ([9]; ATCC700699, ATCC 700699 (48 hours), read-out: MIC, Visual): 12.5 µg/mL (≈ 28.4 µM) | cell death in normal cells [10]: not normal cells

Cc1ccccc1CN1C(=O)C2=C(CCN(Cc3ccccc3)C2)N2CCN=C12 [ONC201, 7-benzyl-4-(2-methylbenzyl)-1,2,6,7,8,9-hexahydroimidazo [1,2-a]pyrido [3,4-e]pyrimidin-5(1H)-one]
exposure required for efficacy (MV411 AML cells): 24 to 48 h | leukemia xenograft tumor growth (MV411 AML xenograft; [24]): not efficacious | NOAEL ([4]; rat non-GLP oral single dose study, read-out: NOAEL): 225 mg/kg | GPCR activity, DRD2 [6]: selectively antagonizes; also recorded: antagonized | antagonism of DRD2L (DRD2L): direct, competitive antagonism | GPCR activity, DRD5 (DRD5): no antagonism | MIC ([7]; Staphylococcus aureus, ATCC29213): > 100 µg/mL | MIC99 ([7]; Staphylococcus aureus, ATCC29213, 24 h): > 100 µg/mL | MIC ([7]; Staphylococcus aureus, ATCC29213, 24 h, read-out: MIC95): > 100 µg/mL | MIC ([7]; Staphylococcus aureus, ATCC29213, 24 h, read-out: MIC, Visual): > 100 µg/mL | MIC ([8]; Staphylococcus aureus, ATCC33591): > 100 µg/mL | MIC99 ([8]; Staphylococcus aureus, ATCC33591, 24 h): > 100 µg/mL | MIC ([8]; Staphylococcus aureus, ATCC33591, 24 h, read-out: MIC95): > 100 µg/mL | MIC ([8]; Staphylococcus aureus, ATCC33591, 24 h, read-out: MIC, Visual): > 100 µg/mL | MIC ([9]; ATCC700699): > 100 µg/mL | MIC99 ([9]; ATCC700699, 48 h): > 100 µg/mL | MIC ([9]; ATCC700699, 48 h, read-out: MIC95): > 100 µg/mL | MIC ([9]; ATCC700699, 48 h, read-out: MIC, Visual): > 100 µg/mL | viability of tumor cells (HCT116, MDA-MB-231, U87 [11]): ≤ 50% | patients exhibiting induction of prolactin (prolactin): 10/11 | GPCR activity, DRD1 (DRD1): no antagonism | GPCR activity, DRD4 (DRD4): weaker potency | interaction with the kinome (kinome): no significant interactions | interaction with nuclear hormone receptors [12]: no significant interactions | inhibition of DRD2 dopamine-induced calcium flux (human DRD2 [13]): completely inhibited; also recorded: complete inhibition | effect on calcium flux of control GPCR (control GPCR): no effect | Calcium Flux as a % of flux with WT DRD2 (100), ONC201 100 μM [14]: 77% | Calcium Flux as a % of flux with WT DRD2 (100), ONC201 250 μM [14]: 26% | Calcium Flux as a % of flux with WT DRD2 (100), ONC201 100 μM [15]: 97% | Calcium Flux as a % of flux with WT DRD2 (100), ONC201 250 μM [15]: 39% | Calcium Flux as a % of flux with WT DRD2 (100), ONC201 100 μM [16]: 122% | Calcium Flux as a % of flux with WT DRD2 (100), ONC201 250 μM [16]: 89% | Calcium Flux as a % of flux with WT DRD2 (100), ONC201 100 μM [17]: 63% | Calcium Flux as a % of flux with WT DRD2 (100), ONC201 250 μM [17]: 20% | Calcium Flux as a % of flux with WT DRD2 (100), ONC201 100 μM [18]: 67% | Calcium Flux as a % of flux with WT DRD2 (100), ONC201 250 μM [18]: 28% | Calcium Flux as a % of flux with WT DRD2 (100), ONC201 100 μM [19]: 79% | Calcium Flux as a % of flux with WT DRD2 (100), ONC201 250 μM [19]: 22% | Calcium Flux as a % of flux with WT DRD2 (100), ONC201 100 μM [20]: 94% | Calcium Flux as a % of flux with WT DRD2 (100), ONC201 250 μM [20]: 58% | Calcium Flux as a % of flux with WT DRD2 (100), ONC201 100 μM [21]: 85% | Calcium Flux as a % of flux with WT DRD2 (100), ONC201 250 μM [21]: 11% | viability at 5000 µg/mL (HCT116, MDA-MB-231, U87 [22]): < 25% | viability at 72 h (in vitro): ≥ 75% | inhibition at 100 µM (human DRD2 [23]): > 95%
